ChEMBL document CHEMBL1201862, “PubChem BioAssay data set” (2004)
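Growth conditions: 96-well plates. Treatment: test compound, 48 hours, 5 concentrations. Analysis: linear interpolation between bracketing concentrations; unreached endpoints set to highest concentration. Abbreviation: GI50, concentration required for 50% inhibition of growth.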 Activity calls are given as the source filed them. Rule as the data show it: active = GI50 up to about 1.1 µM and inactive = higher.

Experiments:
Assay in all cases: inhibition of tumour cell growth, NCI panel, 48 h
786-0 = system: 786-0
COLO 205 = system: COLO 205
HT-29 = system: HT-29
KM12 = system: KM12
LOX IMVI = system: LOX IMVI
MDA-N = system: MDA-N
NCI-H460 = system: NCI-H460
PC-3 = system: PC-3
RXF 393 = system: RXF 393
SF-539 = system: SF-539
SK-MEL-2 = system: SK-MEL-2
SK-OV-3 = system: SK-OV-3
SNB-19 = system: SNB-19
SW-620 = system: SW-620
T47D = system: T47D
TK-10 = system: TK-10
HCT-116 = system: HCT-116
SN12C = system: SN12C
BT-549 = system: BT-549

Row | SMILES | GI50 (786-0) | GI50 (COLO 205) | GI50 (HT-29) | GI50 (KM12) | GI50 (LOX IMVI) | GI50 (MDA-N) | GI50 (NCI-H460) | GI50 (PC-3) | GI50 (RXF 393) | GI50 (SF-539) | GI50 (SK-MEL-2) | GI50 (SK-OV-3) | GI50 (SNB-19) | GI50 (SW-620) | GI50 (T47D) | GI50 (TK-10) | GI50 (HCT-116) | GI50 (SN12C) | GI50 (BT-549)
1 | COC(=O)N1CC2(CO)C3CC=C(C(=O)Nc4ccccc4Br)C2C1C3Br (centres undefined) | > 50 µM (inactive) | > 50 µM (inactive) | > 50 µM (inactive) | > 50 µM (inactive) | > 50 µM (inactive) | > 50 µM (inactive) | > 50 µM (inactive) | > 50 µM (inactive) | > 50 µM (inactive) | > 50 µM (inactive) | > 50 µM (inactive) | > 50 µM (inactive) | > 50 µM (inactive) | > 50 µM (inactive) | > 50 µM (inactive) | > 50 µM (inactive) |  |  | 
2 | CC1(C)CSCC(C)(C)C(=N/N)/C1=N\N | > 100 µM (inactive) | > 100 µM (inactive) | > 100 µM (inactive) | > 100 µM (inactive) | > 100 µM (inactive) | > 100 µM (inactive) | > 100 µM (inactive) | > 100 µM (inactive) |  | > 100 µM (inactive) | > 100 µM (inactive) | > 100 µM (inactive) | > 100 µM (inactive) | > 100 µM (inactive) | > 100 µM (inactive) | > 100 µM (inactive) | > 100 µM (inactive) | > 100 µM (inactive) | 
3 | O=C1NCC2(CCN(CC3COc4ccccc4O3)CC2)N1c1ccccc1 (centres undefined) | > 100 µM (inactive) | > 100 µM (inactive) | > 100 µM (inactive) | > 100 µM (inactive) | > 100 µM (inactive) |  | > 100 µM (inactive) | > 100 µM (inactive) | > 100 µM (inactive) | > 100 µM (inactive) | > 100 µM (inactive) | > 100 µM (inactive) | > 100 µM (inactive) | > 100 µM (inactive) | > 100 µM (inactive) | > 100 µM (inactive) | > 100 µM (inactive) | > 100 µM (inactive) | 
4 | CN(C)c1ccc2c(NCCCCCCNc3ccnc4cc(N(C)C)ccc34)ccnc2c1 | 20.8 µM (inactive) |  | 19.2 µM (inactive) | 8.26 µM (inactive) |  |  | 6.75 µM (inactive) |  | 16 µM (inactive) | 21.5 µM (inactive) | 20.2 µM (inactive) | > 100 µM (inactive) | 0.605 µM (active) | 23.3 µM (inactive) |  | 12.5 µM (inactive) | 6.55 µM (inactive) | 6.79 µM (inactive) | 
5 | O=C1O/C(=C\c2ccc(O)cc2)C(c2ccc(O)c(Cl)c2)=C1Cl | 50.2 µM (inactive) | 96.6 µM (inactive) | 53.2 µM (inactive) | 34 µM (inactive) | 50.6 µM (inactive) | 23.5 µM (inactive) | 30.3 µM (inactive) | > 100 µM (inactive) | 30.9 µM (inactive) | 91.8 µM (inactive) | 31.2 µM (inactive) | > 100 µM (inactive) | 76.9 µM (inactive) | 41.7 µM (inactive) | 59.7 µM (inactive) | 54.8 µM (inactive) |  | 88.9 µM (inactive) | 
6 | C[C@H]1ON2CCC[C@@H]2[C@@H]1C(=O)N1C2CC3CCC2(CS1(=O)=O)C3(C)C (some centres undefined) | > 100 µM (inactive) | > 100 µM (inactive) | > 100 µM (inactive) | > 100 µM (inactive) | > 100 µM (inactive) | > 100 µM (inactive) | > 100 µM (inactive) | > 100 µM (inactive) | > 100 µM (inactive) | > 100 µM (inactive) | > 100 µM (inactive) | > 100 µM (inactive) | > 100 µM (inactive) | > 100 µM (inactive) | > 100 µM (inactive) | > 100 µM (inactive) | > 100 µM (inactive) | > 100 µM (inactive) | 
7 | Cc1ccc(-n2nnc3c(NNc4ccccc4)n[nH]c(=O)c32)cc1 | 67.3 µM (inactive) | 75 µM (inactive) | 57.9 µM (inactive) | > 100 µM (inactive) | > 100 µM (inactive) |  | 30.8 µM (inactive) | 78.2 µM (inactive) |  | > 100 µM (inactive) | 67.5 µM (inactive) |  | 59 µM (inactive) |  |  | 28.1 µM (inactive) | 82.8 µM (inactive) | > 100 µM (inactive) | 73.3 µM (inactive)
8 | O=C1CN(c2cccc(C(F)(F)F)c2)C(=O)CN1NCNN1CC(=O)N(c2cccc(C(F)(F)F)c2)CC1=O | > 100 µM (inactive) | > 100 µM (inactive) | > 100 µM (inactive) | 36 µM (inactive) |  | > 100 µM (inactive) | > 100 µM (inactive) | > 100 µM (inactive) |  | > 100 µM (inactive) |  | > 100 µM (inactive) | > 100 µM (inactive) | > 100 µM (inactive) | > 100 µM (inactive) | > 100 µM (inactive) | > 100 µM (inactive) | > 100 µM (inactive) | 
9 | NC(=O)CC(Nc1ncc2c(n1)-c1ccccc1OC2)C(=O)O (centres undefined) | > 100 µM (inactive) | > 100 µM (inactive) | 64.3 µM (inactive) | > 100 µM (inactive) | > 100 µM (inactive) | > 100 µM (inactive) | > 100 µM (inactive) | > 100 µM (inactive) | > 100 µM (inactive) | > 100 µM (inactive) | > 100 µM (inactive) | > 100 µM (inactive) | > 100 µM (inactive) | > 100 µM (inactive) |  | > 100 µM (inactive) | > 100 µM (inactive) | > 100 µM (inactive) | 
